According to patent publication US9549886B2, “Personal care formulations containing alkyl ketal esters and methods of manufacture” (SEGETIS, INC., priority 2010, dated 2017):
“And” between values parts separate entries of the source, which are not always exact repeats. Equal entries are not always repeated.

What was measured:
[1] = Three-component miscibility test (mixing in a vial at room temperature and shaking, visual clarity); details: for level at which by itself immiscible in water: no ketal
Description: The term “miscible” and its variations (“miscibility”, “compatibility”, and the like) are used herein as a synonym for “soluble”, i.e., a mixture of the materials by themselves form a “true” solution, in which one material is molecularly dispersed in the other, or in which one material is dispersed as droplets which have a longest dimension of less than 200 nm, such that the mixture is optically clear. […] A fully miscible alkyl ketal ester is soluble in another material, such as water, at all proportions from 99:1 to 1:99. A partially miscible alkyl ketal ester is immiscible in another material in proportions from greater than 30 parts of the alkyl ketal ester in 70 parts or less of the other material and miscible in other combinations. A sparingly miscible alkyl ketal ester is immiscible in another material or miscible in another material to the extent of less than 10 parts in 90 parts of the other material. […] Unless stated otherwise, miscibility is assessed at 25° C. […] By “macroscopically uniform,” it is meant that the formulation is uniform when viewed at a length scale of at least 10 micrometers.
In these tests, clear mixtures as observed without magnification from a distance of, e.g., 0.3 meters are considered to be “miscible,” whereas cloudy or phase separated mixtures are considered to be “immiscible.” […]
Three-component mixtures of ethyl-LGK, ethanol, and avobenzone were prepared by mixing the materials at various proportions at room temperature in a vial and shaking. […]
Three-component mixtures of ethyl-LGK, water, and oxybenzone were prepared by mixing the materials at various proportions at room temperature in a vial and shaking. […]
Three-component mixtures of Et-LGK, water, and phenoxyethanol were prepared by mixing the materials at various proportions at room temperature in a vial and shaking.
Three-component mixtures of N,N-diethyl-m-toluamide (DEET), ethyl-LGK, and water were prepared by mixing the materials at various proportions at room temperature in a vial and shaking.

[2] = Solubility of active agents in neat alkyl ketal esters (dissolution, storage at room temperature); details: for % solids dissolved in Et-LGK with heat, no precipitation: dissolved at 35-80° C.; for % solids dissolved in Et-LGK with heat, no precipitation / % solids dissolved in Et-LGK at room temperature, no precipitation: still soluble after storage at room temperature (24 hours to 5 days) where stated; for % solids dissolved in Et-LPK with heat, no precipitation: dissolved at 50-80° C. or with heat, still soluble after storage at room temperature (24 hours to 5 days); for solubility in many alkyl ketal esters: such as ethyl-LGK and ethyl-LPK; for % solids dissolved in Bu-LGK with heat, no precipitation / % solids in Bu-LGK that did not (completely) dissolve: solvent Bu-LGK; for % solids dissolved in Bu-LGK with heat, no precipitation: dissolved at 50-80° C., still soluble after 24 hours at room temperature where stated; for % solids in Bu-LGK that did not (completely) dissolve: dispersion or partially dissolved
[3] = Miscibility of alkyl ketal esters with water and organic compounds; format: physicochemical; details: for dissolves or is miscible with organic compounds to the extent of: organic compounds as listed in the block (alcohols, esters, oils, solvents), 80 parts of the ketal
Protocol: Unless stated otherwise, miscibility is assessed at 25° C.

[4] = Solubility of oxidation dye intermediates in hair dye bases (saturated solutions, UV-Vis); details: 27° C., 10 minutes
[5] = Clarity of model hand sanitizer (isopropyl myristate / water / ethanol / ethyl-LGK); format: physicochemical
Description: Thus, a formulation with 30 parts isopropyl myristate, 10 parts water, and 60 parts ethanol was cloudy. […] In either case, the potential for dryness increases due to reduction in emollient or increase in ethanol. […] This formulation retained the balance of emollient and ethanol, while still providing hydration through the presence of water. Alternatively, a portion of the ethanol can be replaced with Et-LGK without sacrificing clarity, even at higher water levels. […] This reduced ethanol formulation was less drying.

CCCOC(=O)c1ccc(O)cc1 [propyl paraben, Propyl paraben]
level of miscibility in Et-LGK by itself [1]: ≤ 24% | level at which by itself immiscible in water [1]: < 1 % by weight

Oc1ccc(O)cc1 [Hydroquinone]
% solids dissolved in Et-LGK with heat, no precipitation ([2]; solvent Et-LGK): 5% | % solids dissolved in Et-LPK with heat, no precipitation ([2]; solvent Et-LPK): 10%

COC(=O)c1ccc(O)cc1 [methyl paraben, Methyl paraben]
level at which by itself immiscible in water [1]: 1 % by weight

CC1=C(/C=C/C(C)=C/C=C/C(C)=C/C(=O)O)C(C)(C)CCC1 [Retinoic acid]
% solids soluble in Et-LPK at 80° C. ([2]; solvent Et-LPK, 80° C.): 1.88% | solubility in many alkyl ketal esters [2]: lower solubilities

CCN(CC)C(=O)c1cccc(C)c1 [DEET, N,N-diethyl-m-toluamide]
50/50 mixture with Et-LGK ([2]; room temperature where stated): miscible | 50/50 mixture with Et-LPK ([2]; room temperature where stated): miscible | solubility in ethanol and ethyl-LPK [1]: soluble | clarity of DEET / ethyl-LGK / water mixture ([1]; 26.7 parts of DEET, 60.5 parts of ethyl-LGK, 12.8 parts of water, room temperature): clear mixture

CCOC(=O)CCC1(C)OCCO1 [ethyl-LEK]
miscible in water to the extent of ([3]; 25° C. unless stated otherwise): 5 parts per 95 parts of water by weight

CCOC(=O)CCC1(C)OCC(CO)O1 (centres unmarked) [ethyl-LGK]
miscible with water ([3]; 25° C. unless stated otherwise): in all proportions | dissolves or is miscible with organic compounds to the extent of [3]: at least 20 parts of the organic compound in 80 parts

COc1cc(CCC(=O)CC(=O)CCc2ccc(O)c(OC)c2)ccc1O [Tetrahydrocurcuminoids, tetrahydrodiferuloylmethane]
% solids dissolved in Bu-LGK with heat, no precipitation [2]: 5% | % solids dissolved in Et-LGK at room temperature, no precipitation ([2]; solvent Et-LGK): 20% | % solids dissolved in Et-LPK with heat, no precipitation ([2]; solvent Et-LPK): 5%

Nc1ccc(N)cc1 [p-phenylenediamine]
% solids dissolved in Bu-LGK with heat, no precipitation [2]: 5% | % solids in Bu-LGK that did not (completely) dissolve ([2]; insoluble): 25% | % solids dissolved in Et-LGK with heat, no precipitation ([2]; solvent Et-LGK): 5% | % solids in Et-LPK that did not (completely) dissolve or precipitated at room temperature ([2]; solvent Et-LPK, insoluble, not completely dissolved or precipitated on room temperature storage): 5% and 1% | Average Solubility % wt./wt., column 26B ([4]; hair dye base with 7.00% Et-LGK, pH 8.5): 0.07 % wt./wt. | Average Solubility % wt./wt., column 26A ([4]; hair dye base with 7.00% Et-LGK, pH 10.2): 0.07 % wt./wt. | Average Solubility % wt./wt., column 27B ([4]; hair dye base with 7.00% Et-LPK, pH 8.5): <0.01 % wt./wt. | Average Solubility % wt./wt., second column headed 26A ([4]; hair dye base with 7.00% Et-LPK, pH 10.2): 0 % wt./wt.

CCCCCCC(O)CO (centres unmarked) [Caprylyl glycol]
% solids dissolved in Et-LGK at room temperature, no precipitation ([2]; solvent Et-LGK): 15% and 20.8%

COC1=C(OC)C(=O)C(C/C=C(\C)CC/C=C(\C)CC/C=C(\C)CC/C=C(\C)CC/C=C(\C)CC/C=C(\C)CC/C=C(\C)CC/C=C(\C)CC/C=C(\C)CCC=C(C)C)=C(C)C1=O [Coenzyme Q10, Ubiquinone]
% solids in Bu-LGK that did not (completely) dissolve ([2]; insoluble): 5% | % solids in Et-LGK that did not (completely) dissolve or precipitated at room temperature ([2]; solvent Et-LGK, insoluble, partially dissolved or precipitated on room temperature storage): 3.7%

CCCCCCCCCCCCCC(=O)OC(C)C [isopropyl myristate]
clarity of formulation ([5]; 27 parts isopropyl myristate, 9 parts of water, 9 parts of ethyl-LGK and 55 parts of ethanol): clear solution | clarity of formulation ([5]; 30 parts isopropyl myristate, 5 parts water, 5 parts ethyl-LGK and 60 parts ethanol): clear solution | clarity of formulation ([5]; 30 parts isopropyl myristate, 10 parts water, 60 parts ethanol): cloudy | clarity of formulation ([5]; no ketal, emollient level dropped to 22% at the same water level, or to 27% with an increase in ethanol): clear solution

CCCCOC(=O)CCC1(C)OCC(C)O1 (centres unmarked) [n-butyl-LPK]
miscible with water to the extent of ([3]; 25° C. unless stated otherwise): about 1 part per 99 parts water | dissolves or is miscible with organic compounds to the extent of [3]: at least 20 parts of the organic compound in 80 parts

Oc1ccc(C=Cc2cc(O)cc(O)c2)cc1 [Resveratrol]
% solids dissolved in Bu-LGK with heat, no precipitation [2]: 0.5% | % solids dissolved in Et-LGK at room temperature, no precipitation ([2]; solvent Et-LGK): 1% | % solids dissolved in Et-LPK with heat, no precipitation ([2]; solvent Et-LPK): 0.5% | solubility in many alkyl ketal esters [2]: lower solubilities
